# Experimental data: patent EP0853084B1, “Substituted purine derivatives as vitronectin receptor antagonists” (HOECHST AKTIENGESELLSCHAFT, priority 1996, dated 1998)
# Target: humanen Vitronectinrezeptor (VnR) αvβ3 (Homo sapiens, UniProt P05106+P06756)
# Test: Inhibition of binding of Kistrin to human vitronectin receptor (αvβ3 ELISA test, K/VnR)
# Details: 10 µM test compound, read-out: K/VnR Inhibierung bei 10 µM (in %)
# Text: Als Testmethode, nach der beispielsweise die antagonistische Wirkung der erfindungsgemäßen Verbindungen auf den Vitronectinrezeptor αvβ3 bestimmt werden kann, wird nachfolgend die Inhibierung der Bindung von Kistrin an humanen Vitronectinrezeptor (VnR) beschrieben (αvβ3-ELISA-Test; die Testmethode wird bei der Auflistung der Testergebnisse mit "K/VnR" abgekürzt).
# Kistrin wird nach den Methoden von Dennis et al., wie in Proc. Natl. Acad. Sci. USA 1989, 87, 2471-2475 und PROTEINS: Structure, Function and Genetics 1993, 15, 312-321, beschrieben, gereinigt.
# Humaner Vitronectinrezeptor wird aus der menschlichen Plazenta nach der Methode von Pytela et al., Methods Enzymol. 1987, 14.4, 475 gewonnen. Humaner Vitronectinrezeptor αvβ3 kann auch aus einigen Zellinien (zum Beispiel aus 293 Zellen, einer humanen embryonalen Nierenzellinie), die mit DNA Sequenzen für beide Untereinheiten αv und β3 des Vitronectinrezeptors co-transfziert sind, gewonnen werden. Die Untereinheiten wurden mit Octylglycosid extrahiert und anschließend über Concanavalin A, Heparin-Sepharose und S-300 chromatographiert.
# Murine monoklonale Antikörper, spezifisch für die β3 Untereinheit des Vitronectinrezeptors, werden nach der Methode von Newman et al., Blood, 1985, 227-232, oder nach einem ähnlichen Verfahren hergestellt. Das Kaninchen Fab 2 anti-Maus Fc Konjugat an Meerrettich-Peroxidase (anti-Maus Fc HRP) wurde von Pel Freeze (Katalog Nr. 715 305-1) bezogen.
# Die Fähigkeit von Substanzen die Bindung von Kistrin an den Vitronectinrezeptor zu inhibieren, kann mit einem ELISA-Test ermittelt werden. Zu diesem Zweck werden Nunc 96 well-Mikrotiterplatten mit einer Lösung von Kistrin (0.002 mg/ml) nach der Methode von Dennis et al., wie in PROTEINS: Structure, Function and Genetics 1993, 15, 312-321, beschrieben, belegt. Die Platten werden dann zweimal mit PBS/0.05 % Tween-20 gewaschen und durch Inkubieren (60 min) mit RinderserumAlbumin (BSA, 0.5 %, RIA Güteklasse oder besser) in Tris-HCl (50 mM), NaCl (100 mM), MgCl2 (1 mM), CaCl2 (1 mM), MnCl2 (1 mM), pH 7, geblockt. Man stellt Lösungen von bekannten Inhibitoren und von den Testsubstanzen in Konzentrationen von 2 x 10^-12 bis 2 x 10^-6 mol/l in Assay-Puffer (BSA (0.5 %, RIA-Güteklasse oder besser) in Tris-HCl (50 mM), NaCl (100 mM), MgCl2 (1 mM), CaCl2 (1 mM), MnCl2 (1 mM), pH 7) her. Die geblockten Platten werden entleert, und jeweils 0.025 ml dieser Lösung, die eine definierte Konzentration (2 x 10^-12 bis 2 x 10^-6 mol/l) entweder an einem bekannten Inhibitor oder an einer Testsubstanz enthält, werden in jedes well gegeben. 0.025 ml einer Lösung des Vitronectinrezeptors im Testpuffer (0.03 mg/ml) werden in jedes well der Platte pipettiert und die Platte wird auf einem Schüttler 60-180 min bei Raumtemperatur inkubiert. In der Zwischenzeit wird eine Lösung (6 ml/Platte) eines für die β3-Untereinheit des Vitronectinrezeptors spezifischen murinen monoklonalen Antikörpers im Assay-Puffer (0.0015 mg/ml) hergestellt. Zu dieser Lösung gibt man einen zweiten Kaninchen-Antikörper (0.001 ml Stammlösung/6 ml der murinen monoklonalen anti-β3-Antikörper-Lösung), der ein anti-Maus Fc HRP Antikörper Konjugat darstellt, und dieses Gemisch aus murinem anti-β3 Antikörper und Kaninchen anti-Maus Fc HRP Antikörper Konjugat läßt man während der Zeit der Rezeptor-Inhibitor-Inkubation inkubieren. Die Testplatten werden viermal mit PBS-Lösung, die 0.05 % Tween-20 enthält, gewaschen und man pipettiert jeweils 0.05 ml/well der Antikörpermischung in jedes well der Platte und inkubiert 60-180 min. Die Platte wird viermal mit PBS/0.05 % Tween-20 gewaschen und anschließend mit 0.05 ml/well einer PBS-Lösung, die 0.67 mg/ml o-Phenylendiamin und 0.012 % H2O2 enthält, entwickelt. Alternativ hierzu kann o-Phenylendiamin in einem Puffer (pH 5) eingesetzt werden, der Na3PO4 und Zitronensäure enthält. Die Farbentwicklung wird mit 1 N H2SO4 (0.05 ml/well) gestoppt. […]
# Sequence of humanen Vitronectinrezeptor (VnR) αvβ3 (P06756 31-889 limits assumed): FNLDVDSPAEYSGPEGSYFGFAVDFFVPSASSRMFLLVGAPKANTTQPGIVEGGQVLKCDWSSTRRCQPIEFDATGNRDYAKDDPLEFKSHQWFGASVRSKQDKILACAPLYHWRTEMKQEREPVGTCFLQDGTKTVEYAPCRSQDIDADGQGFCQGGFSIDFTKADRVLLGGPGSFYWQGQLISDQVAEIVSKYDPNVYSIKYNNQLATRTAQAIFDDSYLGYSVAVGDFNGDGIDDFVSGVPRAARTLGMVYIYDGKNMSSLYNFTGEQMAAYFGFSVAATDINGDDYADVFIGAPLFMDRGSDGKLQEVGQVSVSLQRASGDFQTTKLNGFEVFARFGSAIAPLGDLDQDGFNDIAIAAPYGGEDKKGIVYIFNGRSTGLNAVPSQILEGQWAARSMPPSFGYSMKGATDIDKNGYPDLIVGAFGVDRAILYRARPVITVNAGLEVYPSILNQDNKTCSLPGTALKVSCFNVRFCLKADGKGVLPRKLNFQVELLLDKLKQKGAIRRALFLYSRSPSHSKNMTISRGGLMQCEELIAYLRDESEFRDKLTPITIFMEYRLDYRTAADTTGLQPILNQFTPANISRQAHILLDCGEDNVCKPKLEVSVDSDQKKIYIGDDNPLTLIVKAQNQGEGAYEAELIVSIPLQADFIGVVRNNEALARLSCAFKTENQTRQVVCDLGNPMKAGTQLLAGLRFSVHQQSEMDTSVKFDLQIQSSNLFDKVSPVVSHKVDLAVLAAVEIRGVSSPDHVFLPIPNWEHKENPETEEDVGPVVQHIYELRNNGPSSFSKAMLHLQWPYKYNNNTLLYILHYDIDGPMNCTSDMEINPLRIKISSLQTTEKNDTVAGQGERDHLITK
# Sequence of humanen Vitronectinrezeptor (VnR) αvβ3 (P06756 891-1048 partner limits assumed): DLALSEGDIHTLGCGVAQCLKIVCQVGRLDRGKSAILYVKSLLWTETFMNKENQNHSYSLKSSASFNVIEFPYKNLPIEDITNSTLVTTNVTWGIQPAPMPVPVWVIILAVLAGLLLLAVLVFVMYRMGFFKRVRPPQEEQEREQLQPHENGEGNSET
# Sequence of humanen Vitronectinrezeptor (VnR) αvβ3 (P05106 27-788): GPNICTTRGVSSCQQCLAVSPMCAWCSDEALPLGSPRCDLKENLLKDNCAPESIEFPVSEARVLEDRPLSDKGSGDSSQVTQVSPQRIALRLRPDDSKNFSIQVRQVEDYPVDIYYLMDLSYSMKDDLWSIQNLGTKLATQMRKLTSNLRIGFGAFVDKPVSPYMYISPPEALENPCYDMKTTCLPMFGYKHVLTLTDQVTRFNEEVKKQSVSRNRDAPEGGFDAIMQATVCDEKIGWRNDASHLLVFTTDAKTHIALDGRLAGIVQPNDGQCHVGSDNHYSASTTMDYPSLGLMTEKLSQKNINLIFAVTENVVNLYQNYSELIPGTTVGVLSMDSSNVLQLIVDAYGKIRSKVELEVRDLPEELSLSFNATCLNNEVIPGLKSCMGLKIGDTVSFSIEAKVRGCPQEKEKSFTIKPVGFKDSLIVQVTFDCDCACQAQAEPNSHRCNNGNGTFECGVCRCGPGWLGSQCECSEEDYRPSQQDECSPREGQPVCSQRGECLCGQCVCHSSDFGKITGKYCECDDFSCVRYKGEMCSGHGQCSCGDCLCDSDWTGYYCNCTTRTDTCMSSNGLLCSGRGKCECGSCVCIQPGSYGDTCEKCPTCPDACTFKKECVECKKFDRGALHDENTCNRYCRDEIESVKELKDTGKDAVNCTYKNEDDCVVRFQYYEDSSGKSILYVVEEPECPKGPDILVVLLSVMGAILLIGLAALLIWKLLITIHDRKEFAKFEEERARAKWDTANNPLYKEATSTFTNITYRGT
row,Compound,inhibition at 10 µM
1,"N=C(N)NCCCCCNc1ncnc2c1ncn2C[C@H](NC(=O)OCc1ccccc1)C(=O)O [Beispiel 1, N^6-(1-(5-Guanidinopentyl))-N^9-(3-(2S-(benzyloxycarbonylamino)propionsäure))-adenin]",75%
2,"N=C(N)NCCCCNc1ncnc2c1ncn2C[C@H](NC(=O)OCc1ccccc1)C(=O)O [Beispiel 2, N^6-(1-(4-Guanidinobutyl))-N^9-(3-(2S-(benzyloxycarbonylamino)propionsäure))-adenin]",80%
3,"N=C(N)NCCCNc1ncnc2c1ncn2C[C@H](NC(=O)OCc1ccccc1)C(=O)O [Beispiel 3, N^6-(1-(3-Guanidinopropyl))-N^9-(3-(2S-(benzyloxycarbonylamino)propionsäure))-adenin]",77%
4,"O=C(N[C@@H](Cn1cnc2c(NCCCCNC3=NCCN3)ncnc21)C(=O)O)OCc1ccccc1 [Beispiel 4, N^6-(1-(4-(4,5-Dihydro-1H-imidazol-2-ylamino)butyl))-N^9-(3-(2S-(benzyloxycarbonylamino)propionsäure))-adenin]",93%
5,"N=C(N)NCCCn1cnc2c(NCC[C@H](NC(=O)OCc3ccccc3)C(=O)O)ncnc21 [Beispiel 12, N^6-(4-(2S-(Benzyloxycarbonylamino)buttersäure))-N^9-(1-(3-guanidinylpropyl))-adenin]",86%
6,"O=C(N[C@@H](CCNc1ncnc2c1ncn2CCCNC1=NCCN1)C(=O)O)OCc1ccccc1 [Beispiel 13, N^6-(4-(2S-(Benzyloxycarbonylamino)buttersäure))-N^9-(1-(3-(4,5-dihydro-1H-imidazol-2-ylamino)-propyl))-adenin]",92%
7,"N=C(N)NCCCCCn1cnc2c(NC[C@H](NC(=O)OCc3ccccc3)C(=O)O)ncnc21 [Beispiel 14, N^6-(3-(2S-(Benzyloxycarbonylamino)propionsäure))-N^9-(1-(5-guanidinylpentyl))-adenin]",84%
8,"NCCCCCn1cnc2c(NC[C@H](NC(=O)OCc3ccccc3)C(=O)O)ncnc21 [Beispiel 14c, N^6-(3-(2S-(Benzyloxycarbonylamino)propionsäure))-N^9-(1-(5-aminopentyl))-adenin]",22%
9,"O=C(N[C@@H](CNc1ncnc2c1ncn2CCCCCNC1=NCCN1)C(=O)O)OCc1ccccc1 [Beispiel 15, N^6-(3-(2S-(Benzyloxycarbonylamino)propionsäure))-N^9-(1-(5-(4,5-dihydro-1H-imidazol-2-ylamino)pentyl))-adenin]",92%
10,"N=C(N)NCCCn1cnc2c(NC[C@H](NC(=O)OCc3ccccc3)C(=O)O)ncnc21 [Beispiel 16, N^6-(3-(2S-(Benzyloxycarbonylamino)propionsäure))-N^9-(1-(3-guanidinylpropyl))-adenin]",85%
11,"NCCCn1cnc2c(NC[C@H](NC(=O)OCc3ccccc3)C(=O)O)ncnc21 [Beispiel 16b, N^6-(3-(2S-(Benzyloxycarbonylamino)propionsäure))-N^9-(1-(3-aminopropyl))-adenin]",29%
12,"N=C(N)NCCCCn1cnc2c(NC[C@H](NC(=O)OCc3ccccc3)C(=O)O)ncnc21 [Beispiel 17, N^6-(3-(2S-(Benzyloxycarbonylamino)propionsäure))-N^9-(1-(4-guanidinylbutyl))-adenin]",92%
13,O=C(N[C@@H](CNc1ncnc2c1ncn2CCCCNC1=NCCN1)C(=O)O)OCc1ccccc1 [Beispiel 18],95%
14,"O=C(N[C@@H](Cn1cnc2c(N3CCC(C(=O)NC4=NCCCN4)CC3)ncnc21)C(=O)O)OCc1ccccc1 [Beispiel 19, 2S-Benzyloxycarbonylamino-3-(6-(4-(1,4,5,6-tetrahydropyrimidin-2-ylcarbamoyl)-piperdin-1-yl)-purin-9-yl)-propionsäure]",97%
15,"O=C(N[C@@H](Cn1cnc2c(NCCCCNc3nc4ccccc4[nH]3)ncnc21)C(=O)O)OCc1ccccc1 [Beispiel 23, 3-(6-((4-(Benzimidazol-2-ylamino)-butyl)-amino)-purin-9-yl)-2S-benzyloxycarbonyl-amino-propionsäure]",93%
16,"O=C(N[C@@H](Cn1cnc2c(N3CCC(CNC4=NCCN4)CC3)ncnc21)C(=O)O)OCc1ccccc1 [Beispiel 24, 2S-Benzyloxycarbonylamino-3-(6-(4-((4,5-dihydro-1H-imidazol-2-ylamino)-methyl)-piperidin-1-yl)-purin-9-yl)-propionsäure]",95%
17,O=C(N[C@H](Cn1cnc2c(N3CCC(CNC4=NCCN4)CC3)ncnc21)C(=O)O)OCc1ccccc1 [Beispiel 25],89%
18,"N=C(N)NCC1CCN(c2ncnc3c2ncn3C[C@H](NC(=O)OCc2ccccc2)C(=O)O)CC1 [Beispiel 26, 2S-Benzyloxycarbonylamino-3-(6-(4-(guanidinomethyl)-piperidin-1-yl)-purin-9-yl)-propionsäure]",91%
